For the assay, the system named is MX-1 breast xenograft, nude mice, tumor weight T/C. In words: NCI In Vivo Anticancer Drug Screen. Data for tumor model Human Mammary Carcinoma MX-1 Xenograft (intrarenal inoculation) in NU/NU Swiss (nude) mice. The conditions noted are these: endpoint: mean tumor weight change, higher = larger tumour. Summed up: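 Mice carrying the implanted tumor receive either test agent or vehicle. Tumor size or survival is then recorded for both groups. Results are stated as the treated-to-control quotient.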

[1] abbreviates: dose: 300.0 mg/kg/injection, schedule: Q04DX003 (sc), vehicle: Klucel (hydroxypropylcellulose) (HPC).
The mark [2] stands for this setting: dose: 600.0 mg/kg/injection, schedule: Q04DX003 (sc), vehicle: Klucel (hydroxypropylcellulose) (HPC).
Where [3] appears, read: dose: 75.0 mg/kg/injection, schedule: Q04DX003 (sc), vehicle: saline with Tween-80.
Setting [4] is: dose: 150.0 mg/kg/injection, schedule: Q04DX003 (sc), vehicle: saline with Tween-80.
The mark [5] stands for this setting: dose: 300.0 mg/kg/injection, schedule: Q04DX003 (sc), vehicle: saline with Tween-80.
[6] abbreviates: dose: 50.0 mg/kg/injection, schedule: Q01DX010 (sc), vehicle: saline.
[7] abbreviates: dose: 300.0 mg/kg/injection, schedule: Q04DX003 (sc), vehicle: distilled water + Tween-80.
Setting [8] is: dose: 600.0 mg/kg/injection, schedule: Q04DX003 (sc), vehicle: distilled water + Tween-80.
Where [9] appears, read: dose: 1200.0 mg/kg/injection, schedule: Q04DX003 (sc), vehicle: distilled water + Tween-80.
Setting [10] is: dose: 100.0 mg/kg/injection, schedule: Q01DX010 (sc), vehicle: saline.
Setting [11] is: dose: 200.0 mg/kg/injection, schedule: Q01DX010 (sc), vehicle: saline.

Where “and” joins values, the source holds several entries; their conditions need not be identical. Identical values can stand only once. Records with an inconclusive call do not appear.

Turning to `COP12(OCCO1)SC(C(F)(F)F)=C(C(F)(F)F)S2`, the T/C reads like this: (dose: 125.0 mg/kg/injection, schedule: Q04DX003 (sc), vehicle: saline with Tween-80) 119 % of control; (dose: 250.0 mg/kg/injection, schedule: Q04DX003 (sc), vehicle: saline with Tween-80) 92 % of control.

Take `C=Cc1cnc([N+](=O)[O-])n1C`: the T/C runs as follows: (dose: 150.0 mg/kg/injection, schedule: Q04DX003 (sc), vehicle: Klucel (hydroxypropylcellulose) (HPC)) 72 % of control; under setting [1], 78 % of control; under setting [2], 54 % of control.

Regarding `FC(F)(F)c1nc2nc(Cl)c(Cl)nc2[nH]1`, the T/C is, setting by setting: under setting [3], 92 % of control; under setting [4], 97 % of control; under setting [5], 90 % of control.

As for `C(CSC1=NCCN1)CSC1=NCCN1`, the T/C under setting [6] was 103 % of control.

As to `COc1cc2c(c(OC)c1OC)-c1ccc(OC)c(=O)cc1[C@@H](NC(=O)CCl)CC2`, the T/C is 90 % of control (dose: 1.25 mg/kg/injection, schedule: Q04DX003 (sc), vehicle: saline with Tween-80); 64 % of control (dose: 2.5 mg/kg/injection, schedule: Q04DX003 (sc), vehicle: saline with Tween-80); 21 % of control (dose: 5.0 mg/kg/injection, schedule: Q04DX003 (sc), vehicle: saline with Tween-80); -92 % of control (dose: 10.0 mg/kg/injection, schedule: Q04DX003 (sc), vehicle: saline with Tween-80).

Regarding `O=C(O)CCCCCCCC(=O)O`, the T/C is, setting by setting: under setting [7], 151 % of control; under setting [8], 150 % of control; under setting [9], 80 % of control.

`Cc1c2ccc3ccccc3c2c[n+]2ccccc12`: the T/C runs as follows: (dose: 9.38 mg/kg/injection, schedule: Q04DX003 (sc), vehicle: Klucel (hydroxypropylcellulose) (HPC)) 75 % of control; (dose: 18.75 mg/kg/injection, schedule: Q04DX003 (sc), vehicle: Klucel (hydroxypropylcellulose) (HPC)) 77 % of control.

As to `C1CCC2[N-]CC3CCCCC3[N-]CC3CCCCC3[N-]CC3CCCCC3[N-]CC2C1.[Cu]` (stereo not given), the T/C reads like this: (dose: 3.13 mg/kg/injection, schedule: Q01DX010 (sc), vehicle: Klucel (hydroxypropylcellulose) (HPC)) 47 % of control; (dose: 6.25 mg/kg/injection, schedule: Q01DX010 (sc), vehicle: Klucel (hydroxypropylcellulose) (HPC)) 193 % of control; (dose: 12.5 mg/kg/injection, schedule: Q01DX010 (sc), vehicle: Klucel (hydroxypropylcellulose) (HPC)) 178 % of control; (dose: 25.0 mg/kg/injection, schedule: Q01DX010 (sc), vehicle: Klucel (hydroxypropylcellulose) (HPC)) 113 % of control.

In the case of `[Cl][Pt+2][Cl].[NH-]CC1(C[NH-])CCC1`, the T/C was 48 % of control (dose: 3.12 mg/kg/injection, schedule: Q04DX003 (sc), vehicle: suspension in saline); 6 % of control (dose: 6.25 mg/kg/injection, schedule: Q04DX003 (sc), vehicle: saline); 19 % of control and 29 % of control (dose: 6.25 mg/kg/injection, schedule: Q04DX003 (sc), vehicle: suspension in saline); 6 % of control and 16 % of control (dose: 12.5 mg/kg/injection, schedule: Q04DX003 (sc), vehicle: suspension in saline); -74 % of control and -54 % of control (dose: 25.0 mg/kg/injection, schedule: Q04DX003 (sc), vehicle: suspension in saline).

As for `CCOC(=O)c1c[nH]c2oc(/C=N/N3CC(CN4CCOCC4)OC3=O)cc2c1=O` (stereo not given), the T/C was 116 % of control under setting [6]; 77 % of control under setting [10]; 98 % of control under setting [11]; 72 % of control (dose: 400.0 mg/kg/injection, schedule: Q01DX010 (sc), vehicle: saline).

`CS(=O)(=O)OCCCCOS(C)(=O)=O`: the T/C is, setting by setting: (dose: 6.25 mg/kg/injection, schedule: Q01DX010 (sc), vehicle: saline with Tween-80) 114 % of control; (dose: 12.5 mg/kg/injection, schedule: Q01DX010 (sc), vehicle: saline with Tween-80) 68 % of control; (dose: 25.0 mg/kg/injection, schedule: Q01DX010 (sc), vehicle: saline with Tween-80) 49 % of control.

As to `Nc1nc(F)nc2c1ncn2C1OC(COP(=O)(O)O)C(O)C1O` (stereo not given), the T/C under setting [6] was 86 % of control, the T/C under setting [10] was 69 % of control and the T/C under setting [11] is 91 % of control.

Consider `C/C=C(\C)C(=O)OC1C(C)=C2C(C1OC(=O)CCCCC)C(C)(OC(C)=O)CC(OC(=O)CCC)C1(O)C2OC(=O)C1(C)O` (stereo not given), for which the T/C (dose: 2.0 mg/kg/injection, schedule: Q04DX003 (ip), vehicle: Klucel (hydroxypropylcellulose) (HPC)) is 52 % of control.

For `O=S(=O)(SC(S(=O)(=O)c1ccccc1)S(=O)(=O)c1ccccc1)c1ccccc1`, the T/C is 68 % of control (dose: 100.0 mg/kg/injection, schedule: Q04DX003 (sc), vehicle: Klucel (hydroxypropylcellulose) (HPC)); 42 % of control (dose: 200.0 mg/kg/injection, schedule: Q04DX003 (sc), vehicle: Klucel (hydroxypropylcellulose) (HPC)); 84 % of control (dose: 400.0 mg/kg/injection, schedule: Q04DX003 (sc), vehicle: Klucel (hydroxypropylcellulose) (HPC)); 100 % of control under setting [2]; 87 % of control and 98 % of control (dose: 800.0 mg/kg/injection, schedule: Q04DX003 (sc), vehicle: Klucel (hydroxypropylcellulose) (HPC)); 112 % of control (dose: 1600.0 mg/kg/injection, schedule: Q04DX003 (sc), vehicle: Klucel (hydroxypropylcellulose) (HPC)).

Turning to `CS(=O)(=O)c1ncc(Br)cn1`, the T/C is, setting by setting: (dose: 25.0 mg/kg/injection, schedule: Q01DX010 (sc), vehicle: suspension in saline) 79 % of control; under setting [3], 98 % of control; under setting [4], 121 % of control; under setting [5], 119 % of control.

Consider `Oc1c(Cl)cc(Cl)cc1C1N2CCCCC2C2c3cccn3-c3ccccc3N21` (stereo not given), for which the T/C under setting [1] was 105 % of control; the T/C under setting [2] was 66 % of control; the T/C (dose: 1200.0 mg/kg/injection, schedule: Q04DX003 (sc), vehicle: Klucel (hydroxypropylcellulose) (HPC)) was 88 % of control; the T/C (dose: 2400.0 mg/kg/injection, schedule: Q04DX003 (sc), vehicle: Klucel (hydroxypropylcellulose) (HPC)) is 82 % of control.

On to `O=CNCO`, for which the T/C (dose: 300.0 mg/kg/injection, schedule: Q01DX010 (sc), vehicle: water) was 111 % of control; the T/C (dose: 600.0 mg/kg/injection, schedule: Q01DX010 (sc), vehicle: water) is 62 % of control; the T/C (dose: 1200.0 mg/kg/injection, schedule: Q01DX010 (sc), vehicle: water) was 37 % of control; the T/C (dose: 2000.0 mg/kg/injection, schedule: Q01DX010 (sc), vehicle: water) was 5 % of control.

Consider `COC1=C(C)C(=O)C2=C(C1=O)C1C3CC4=C(C(=O)C(OC)=C(C)C4=O)C(CNC(=O)C(C)=O)N3C(C#N)C(C2)N1C` (stereo not given), for which the T/C was 104 % of control (dose: 1.0 mg/kg/injection, schedule: Q04DX003 (sc), vehicle: Klucel (hydroxypropylcellulose) (HPC)) and 69 % of control (dose: 4.0 mg/kg/injection, schedule: Q04DX003 (sc), vehicle: Klucel (hydroxypropylcellulose) (HPC)).

`c1csc(C[N+]23CN4CN(CN(C4)C2)C3)c1`: the T/C is, setting by setting: (dose: 100.0 mg/kg/injection, schedule: Q04DX003 (sc), vehicle: saline) 108 % of control; (dose: 400.0 mg/kg/injection, schedule: Q04DX003 (sc), vehicle: saline) 93 % of control.

As to `N#C[Se-].c1ccc([Te+](c2ccccc2)c2ccccc2)cc1`, the T/C (dose: 3.75 mg/kg/injection, schedule: Q04DX003 (sc), vehicle: Klucel (hydroxypropylcellulose) (HPC)) was 101 % of control; the T/C (dose: 7.5 mg/kg/injection, schedule: Q04DX003 (sc), vehicle: Klucel (hydroxypropylcellulose) (HPC)) was 118 % of control; the T/C (dose: 30.0 mg/kg/injection, schedule: Q04DX003 (sc), vehicle: Klucel (hydroxypropylcellulose) (HPC)) was 75 % of control.

`CC(=O)OC1OC(=O)C(C)(C(C)=O)C1C` (stereo not given): the T/C runs as follows: (dose: 5.0 mg/kg/injection, schedule: Q04DX003 (ip), vehicle: distilled water + alcohol) 85 % of control; (dose: 10.0 mg/kg/injection, schedule: Q04DX003 (ip), vehicle: distilled water + alcohol) 109 % of control; (dose: 20.0 mg/kg/injection, schedule: Q04DX003 (ip), vehicle: distilled water + alcohol) 35 % of control.

As to `COc1ccc2c(c1)CCn1c(C)c(COC(=O)NC(C)C)c(COC(=O)NC(C)C)c1-2`, the T/C is 6 % of control (dose: 150.0 mg/kg/injection, schedule: Q04DX003 (sc), vehicle: distilled water + Tween-80); 3 % of control under setting [7]; -100 % of control under setting [8]; -100 % of control under setting [9].

The values above are taken from PubChem BioAssay AID296 (DTP/NCI, 2004).
